Assay results from paper PMC6556873, “Rapid Covalent-Probe Discovery by Electrophile-Fragment Screening” (Journal of the American Chemical Society, 2019).
Where two headings read alike, the source gives them in different places.

Key:
BSA = molecular target: T1, BSA (Bos taurus, UniProt P02769); set-up: Intact protein LC/MS covalent labelling, fragments in pools of five, 200 uM each, 4 °C; details: 24 h, 4 °C, pool of five; 200 µM; covalent
T1 construct: gene ALB

NUDT7 = molecular target: T2, NUDT7 (Homo sapiens, UniProt P0C024); set-up: Intact protein LC/MS covalent labelling, fragments in pools of five, 200 uM each, 4 °C; details: 24 h, 4 °C, pool of five; 200 µM; covalent
T2 construct: residues 14-235, E. coli, pNIC28-Bsa4, N-terminal His6 tag removed by TEV, construct 26672 Da

OTUB2 (OTUB2A) = molecular target: T3, OTUB2 (OTUB2A) (Homo sapiens, UniProt Q96DC9); set-up: Intact protein LC/MS covalent labelling, fragments in pools of five, 200 uM each, 4 °C; details: 24 h, 4 °C, pool of five; 200 µM; covalent
T3 construct: full length residues 1-234, E. coli BL21(DE3)-R3, His tag removed by TEV, construct 27312 Da
T3 sequence (Q96DC9 1-234): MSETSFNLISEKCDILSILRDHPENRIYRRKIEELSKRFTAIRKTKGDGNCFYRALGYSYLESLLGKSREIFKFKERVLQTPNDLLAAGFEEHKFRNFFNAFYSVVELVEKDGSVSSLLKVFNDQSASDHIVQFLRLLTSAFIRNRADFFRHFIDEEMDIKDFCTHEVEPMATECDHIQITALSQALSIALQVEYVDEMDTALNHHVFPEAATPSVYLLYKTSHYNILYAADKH

PCAF = molecular target: T4, PCAF (Homo sapiens, UniProt Q92831); set-up: Intact protein LC/MS covalent labelling, fragments in pools of five, 200 uM each, 4 °C; details: 24 h, 4 °C, pool of five; 200 µM; covalent
T4 construct: gene KAT2B

in vitro [1] = assay: in vitro; set-up: species or system CCD841, HEK293; details: human, hb2 cells, read-out: HB-2 Cells Viability (%)
in vitro [2] = assay: in vitro; set-up: species or system HB2, HEK293; details: human, ccd841 cells
in vitro [3] = assay: in vitro; set-up: species or system HB2, CCD841; details: human, hek293 cells

T1 sequence (P02769 whole entry, the tested form may be a part): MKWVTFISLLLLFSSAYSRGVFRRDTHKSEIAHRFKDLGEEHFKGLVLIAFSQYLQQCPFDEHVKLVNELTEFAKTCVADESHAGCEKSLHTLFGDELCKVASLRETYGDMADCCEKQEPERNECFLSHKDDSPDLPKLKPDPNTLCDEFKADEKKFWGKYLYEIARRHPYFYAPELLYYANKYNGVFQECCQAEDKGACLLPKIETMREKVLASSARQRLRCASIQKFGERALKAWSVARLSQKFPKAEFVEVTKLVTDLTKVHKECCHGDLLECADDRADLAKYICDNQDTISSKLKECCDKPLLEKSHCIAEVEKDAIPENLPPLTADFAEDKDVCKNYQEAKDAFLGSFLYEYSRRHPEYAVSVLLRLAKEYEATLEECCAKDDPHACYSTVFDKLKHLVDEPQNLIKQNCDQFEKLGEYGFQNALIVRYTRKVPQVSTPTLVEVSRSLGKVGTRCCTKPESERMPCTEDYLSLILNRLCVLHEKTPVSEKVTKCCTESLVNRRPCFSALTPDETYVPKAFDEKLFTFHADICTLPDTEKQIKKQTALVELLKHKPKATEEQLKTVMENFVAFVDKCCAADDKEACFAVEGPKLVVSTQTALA
T2 sequence (P0C024 14-235): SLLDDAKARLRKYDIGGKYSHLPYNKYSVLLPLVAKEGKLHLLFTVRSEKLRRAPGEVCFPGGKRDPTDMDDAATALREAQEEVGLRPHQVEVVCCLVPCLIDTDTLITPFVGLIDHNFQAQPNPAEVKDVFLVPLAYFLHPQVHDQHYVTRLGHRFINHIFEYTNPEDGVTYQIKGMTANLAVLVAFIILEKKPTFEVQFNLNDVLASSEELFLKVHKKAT
T4 sequence (Q92831 whole entry, the tested form may be a part): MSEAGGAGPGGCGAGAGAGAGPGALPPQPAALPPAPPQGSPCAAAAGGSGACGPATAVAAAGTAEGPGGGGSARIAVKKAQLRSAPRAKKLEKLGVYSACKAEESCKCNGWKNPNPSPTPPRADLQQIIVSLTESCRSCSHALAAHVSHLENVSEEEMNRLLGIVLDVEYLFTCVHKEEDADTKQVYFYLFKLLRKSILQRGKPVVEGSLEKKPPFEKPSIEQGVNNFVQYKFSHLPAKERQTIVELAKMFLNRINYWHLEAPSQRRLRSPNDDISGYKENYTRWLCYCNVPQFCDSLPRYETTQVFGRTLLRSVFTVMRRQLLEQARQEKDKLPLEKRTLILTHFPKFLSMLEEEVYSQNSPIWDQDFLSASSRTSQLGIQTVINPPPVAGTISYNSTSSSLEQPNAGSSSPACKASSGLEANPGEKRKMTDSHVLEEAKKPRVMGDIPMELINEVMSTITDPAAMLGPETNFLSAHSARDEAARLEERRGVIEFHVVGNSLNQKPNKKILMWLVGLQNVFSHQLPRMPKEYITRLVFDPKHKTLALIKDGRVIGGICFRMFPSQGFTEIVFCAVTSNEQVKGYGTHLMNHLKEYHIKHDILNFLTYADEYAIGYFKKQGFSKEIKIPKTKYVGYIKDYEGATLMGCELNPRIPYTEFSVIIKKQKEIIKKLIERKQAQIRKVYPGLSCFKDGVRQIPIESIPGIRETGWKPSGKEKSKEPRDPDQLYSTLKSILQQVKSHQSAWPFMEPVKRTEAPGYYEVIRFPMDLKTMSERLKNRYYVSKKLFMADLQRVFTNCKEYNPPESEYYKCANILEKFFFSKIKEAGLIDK

Row | Compound | BSA (BSA) | NUDT7 (NUDT7) | OTUB2 (OTUB2 (OTUB2A)) | PCAF (PCAF) | viability at 48 h, 10 µM (in vitro [1]) [%] | viability at 48 h, 10 µM (in vitro [2]) [%] | viability at 48 h, 10 µM (in vitro [3]) [%]
1 | O=C(CCl)N1CCOC(c2ccc(F)cc2)C1 (centres unmarked) [PCM-0102615] | 0 | 0 | 0 | 0 | 2 | 12.6 | 4.8
2 | CC(C)(C)OC(=O)N1CCCC(CNC(=O)CCl)C1 (centres unmarked) [PCM-0102923] | 0.13 | 0 | 0.2 | 0 | 99.5 | 91 | 92.2
3 | C=CC(=O)NC1CNC(=O)C1 (centres unmarked) [PCM-0102882] | 0 | 0 | 0 | 0 | 108 | 99.1 | 97.3
4 | C=CC(=O)N1CCC(C(=O)N2CCN(C(C)=O)CC2)CC1 [PCM-0102593] | 0 | 0 | 0 | 0 | 98.3 | 111 | 105
5 | Cc1ccc(NC(=O)CCl)cc1Cl [PCM-0102208] | 0 | 0.19 | 0.46 | 0 | 3.7 | 37.4 | 1.2
6 | O=C(CCl)N1CCc2ccccc21 [PCM-0102160] | 0 | 0 | 0 | 0 | 6.1 | 44.6 | 16.3
7 | C=CC(=O)Nc1ccc2c(c1)NC(=O)CO2 [PCM-0102499] | 0 | 0.1 | 0 | 0 | 104 | 108 | 71.7
8 | CN(C(=O)CCl)C1CCS(=O)(=O)C1 (centres unmarked) [PCM-0102178] | 0 | 0 | 0 | 0 | 56.9 | 72.1 | 31.5
9 | Cc1cc(CNC(=O)CCl)ccc1F [PCM-0102305] | 0.13 | 0 | 0.59 | 0 | 85.5 | 80.7 | 57.8
10 | C=CC(=O)N1CCCc2[nH]c3ccc(F)cc3c2C1 [PCM-0102485] | 0.12 | 0 | 0 | 0 | 95.2 | 106 | 105
11 | CCN(C(=O)CCl)c1ccccc1C [PCM-0102980] | 0.07 | 0.43 | 0 | 0 | 93.4 | 85.7 | 66.1
12 | C=CC(=O)NCC1CCOCO1 (centres unmarked) [PCM-0102648] | 0.2 | 0 | 0 | 0 | 102 | 104 | 88.8
13 | CC(NC(=O)CCl)c1ccc(Cl)cc1Cl (centres unmarked) [PCM-0102212] | 0 | 0.54 | 0.18 | 0 | 37.4 | 58.2 | 37.3
14 | CC1CCN(C(=O)CCl)C2CCCCC12 (centres unmarked) [PCM-0102831] | 0 | 0.37 | 0 | 0 | 14.7 | 6.8 | 5.6
15 | O=C(CCl)Nc1ccc(Br)cn1 [PCM-0102227] | 0 | 0 | 0 | 0 | 84.3 | 75.7 | 72.4
16 | Cc1n[nH]c(=O)c2c(NC(=O)CCl)oc(C)c12 [PCM-0102226] | 0 | 0 | 0 | 0 | 108 | 112 | 104
17 | Cc1csc(NC(=O)CCl)n1.Cl [PCM-0102872] | 0 | 0.16 | 0 | 0 | 90.4 | 94.9 | 91.9
